Test results published in US20140349340A1, “MBTH-LIKE PROTEINS IN THE PRODUCTION OF SEMI SYNTHETIC ANTIBIOTICS” (DSM SINOCHEM PHARMACEUTICALS NETHERLANDS B.V., priority 2012, published 2014).

Experiments:
Format in all cases: biochemical
[1] = PPi release assay, adenylation activity with L-hydroxyphenylglycine; details: substrate L-hydroxyphenylglycine; for adenylation activity (absorption 360 nm, PPi release assay): protein alone, without MbtH-like protein
Description: (§1) These assays use inorganic pyrophosphatases to convert PPi produced during aminoacyl-AMP formation to orthophosphate (Pi). To measure Pi concentrations some of these assays use molybdate/malachite green reagent for colorimetric detection (McQuade et al. 2008) or, as used in the context of the present invention, a shift in absorbance maximum by conversion of 7-methyl-6-thioguanosine (MESG) by purine nucleoside phosphorylase (Ehmann D. E. et al. (Proc. Natl. Acad. Sci. (2000) 97, 2509-2514) or Daniel & Aldrich (Anal. Biochem. (2010) 404, 56-63)).
(§2) To determine the adenylation activity of the adenylation domains, the Enzchek® pyrophosphate assay kit (Life Technologies) was used as described by Ehmann D. E. et al. (Proc Nat Acad Science (2000) 97, 2509-2514) with small modifications. The reactions were performed 96 wells UV/Vis transparent plates (BD Falcon). The reaction mixture comprises 50 mM HEPES pH 8.0, 10 mM MgCl2, 5 mM ATP, 75 mM DTT, 0.03 U Inorganic Pyrophosphatase (IP), 1 U Purine Nucleoside Phosphorylase (PNP) and 0.2 mM MESG in a volume of 70 μl. Next 20 μl (around 0.5-2 μM final concentration) of purified A(T) domain, with or without co-purification of the MbtH like helper protein was added and the reaction was pre-incubated for 15 minutes at RT to reduce contaminating Pi. Following the pre-incubation, 10 μl of a 10 mM or 1 mM solution of the appropriate amino acid depending on the performed specificity determination was added to initiate the adenylation reaction and the absorbance at 360 nm was measured using a TECAN I Control spectrophotometer. Absorbance measurements were made every 5 to 10 min over a period of up to 240 min. A reaction with addition of 10 μl MilliQ water instead was used to determine and subtract the background absorbance. As substrates the following amino acids were used: D- or L-phenylalanine, D- or L-hydroxyphenylglycine, D- or L-phenylglycine, L-tryptophan, L-valine, L-cysteine, and L-leucine.

[2] = PPi release assay, adenylation activity with D-hydroxyphenylglycine; details: substrate D-hydroxyphenylglycine; for adenylation activity (absorption 360 nm, PPi release assay): protein alone, without MbtH-like protein
Description: as §1, §2

[3] = PPi release assay, adenylation activity with L-phenylglycine; details: substrate L-phenylglycine; co-purified with Tcp13, or Tcp17 or VMbtH
Description: as §1, §2

[4] = PPi release assay, adenylation activity with D-phenylglycine; details: substrate D-phenylglycine; co-purified with Tcp13, or Tcp17 or VMbtH
Description: as §1, §2

[5] = PPi release assay, adenylation activity with L-phenylalanine; details: substrate L-phenylalanine; for adenylation activity (PPi release assay): co-purified with Tcp13, or Tcp17 or VMbtH; for adenylation activity (absorption 360 nm, PPi release assay): protein alone, without MbtH-like protein
Description: as §1, §2

[6] = PPi release assay, adenylation activity with D-phenylalanine; details: substrate D-phenylalanine; for adenylation activity (PPi release assay): co-purified with Tcp13, or Tcp17 or VMbtH; for adenylation activity (absorption 360 nm, PPi release assay): protein alone, without MbtH-like protein
Description: as §1, §2

[7] = co-purified with Tcp13, or Tcp17 or VMbtH
[8] = co-purified with MbtH-like protein CMbtH

Row | Substance | adenylation activity (PPi release assay) ([1]; co-purified with MbtH-like protein BMbtH) | adenylation activity (PPi release assay) [1, 7] | adenylation activity (absorption 360 nm, PPi release assay) [1] | adenylation activity (PPi release assay) [2, 7] | adenylation activity (absorption 360 nm, PPi release assay) [2] | adenylation activity (PPi release assay) [3] | adenylation activity (PPi release assay) [4] | adenylation activity (PPi release assay) [5] | adenylation activity (absorption 360 nm, PPi release assay) [5] | adenylation activity (PPi release assay) [6] | adenylation activity (absorption 360 nm, PPi release assay) [6] | adenylation activity (PPi release assay) [1, 8] | adenylation activity (PPi release assay) [2, 8]
1 | BpsB_M1_A: purified adenylation domain of BpsB module M1 (SEQ ID NO: 26); Amycolatopsis balhimycina | confirmed its activity | no adenylation activity | No adenylation activity | no adenylation activity | No adenylation activity | no adenylation activity | no adenylation activity | no adenylation activity | No adenylation activity | no adenylation activity | No adenylation activity | – | –
2 | ComB_M1_A: purified adenylation domain of ComB module M1 (SEQ ID NO: 9); Streptomyces lavendulae | – | no adenylation activity | No adenylation activity | no adenylation activity | No adenylation activity | no adenylation activity | no adenylation activity | no adenylation activity | No adenylation activity | no adenylation activity | No adenylation activity | confirmed its activity | confirmed its activity
